Source: PMC9303975 (Proceedings of the National Academy of Sciences of the …, 2022)
Bridges are numbered along the chain shown (N, C = ends). Where no end group is shown, it is not given here.

B1: Endo180: mannose receptor family protein with high structural homology to the PLA2R CysR domain (protein, UniProt Q9UBG0 31-1479, looked up)
C-type mannose receptor 2: GAPGDAALPEPNVFLIFSHGLQGCLEAQGGQVRVTPACNTSLPAQRWKWVSRNRLFNLGTMQCLGTGWPGTNTTASLGMYECDREALNLRWHCRTLGDQLSLLLGARTSNISKPGTLERGDQTRSGQWRIYGSEEDLCALPYHEVYTIQGNSHGKPCTIPFKYDNQWFHGCTSTGREDGHLWCATTQDYGKDERWGFCPIKSNDCETFWDKDQLTDSCYQFNFQSTLSWREAWASCEQQGADLLSITEIHEQTYINGLLTGYSSTLWIGLNDLDTSGGWQWSDNSPLKYLNWESDQPDNPSEENCGVIRTESSGGWQNRDCSIALPYVCKKKPNATAEPTPPDRWANVKVECEPSWQPFQGHCYRLQAEKRSWQESKKACLRGGGDLVSIHSMAELEFITKQIKQEVEELWIGLNDLKLQMNFEWSDGSLVSFTHWHPFEPNNFRDSLEDCVTIWGPEGRWNDSPCNQSLPSICKKAGQLSQGAAEEDHGCRKGWTWHSPSCYWLGEDQVTYSEARRLCTDHGSQLVTITNRFEQAFVSSLIYNWEGEYFWTALQDLNSTGSFFWLSGDEVMYTHWNRDQPGYSRGGCVALATGSAMGLWEVKNCTSFRARYICRQSLGTPVTPELPGPDPTPSLTGSCPQGWASDTKLRYCYKVFSSERLQDKKSWVQAQGACQELGAQLLSLASYEEEHFVANMLNKIFGESEPEIHEQHWFWIGLNRRDPRGGQSWRWSDGVGFSYHNFDRSRHDDDDIRGCAVLDLASLQWVAMQCDTQLDWICKIPRGTDVREPDDSPQGRREWLRFQEAEYKFFEHHSTWAQAQRICTWFQAELTSVHSQAELDFLSHNLQKFSRAQEQHWWIGLHTSESDGRFRWTDGSIINFISWAPGKPRPVGKDKKCVYMTASREDWGDQRCLTALPYICKRSNVTKETQPPDLPTTALGGCPSDWIQFLNKCFQVQGQEPQSRVKWSEAQFSCEQQEAQLVTITNPLEQAFITASLPNVTFDLWIGLHASQRDFQWVEQEPLMYANWAPGEPSGPSPAPSGNKPTSCAVVLHSPSAHFTGRWDDRSCTEETHGFICQKGTDPSLSPSPAALPPAPGTELSYLNGTFRLLQKPLRWHDALLLCESRNASLAYVPDPYTQAFLTQAARGLRTPLWIGLAGEEGSRRYSWVSEEPLNYVGWQDGEPQQPGGCTYVDVDGAWRTTSCDTKLQGAVCGVSSGPPPPRRISYHGSCPQGLADSAWIPFREHCYSFHMELLLGHKEARQRCQRAGGAVLSILDEMENVFVWEHLQSYEGQSRGAWLGMNFNPKGGTLVWQDNTAVNYSNWGPPGLGPSMLSHNSCYWIQSNSGLWRPGACTNITMGVVCKLPRAEQSSFSPSALPENPAALVVVLMAVLLLLALLTAALILYRRRQSIERGAFEGARYSRSSSSPTEATEKNILVSDMEMNEQQE

Experiments:
[1] = system: PLA2R autoantibody from one MN patient serum; test: Peptide microarray binding detection (PEPperCHIP); settings: MN patient serum at 1:100, goat anti-human IgG DyLight 680
Description: To probe the importance of the amino acids within the PLA2R epitope in human autoantibody recognition, we utilized a printed peptide microarray. This peptide laser printing technology allows the synthesis of peptides (between 15 and 20 amino acids in length) directly onto glass slides followed by single substitution scans, which involves the stepwise substitution of all amino acid positions of a given epitope with all 20 main amino acids (Fig. 1A). We first synthesized a stepped series of truncated peptides across the originally discovered 31mer epitope (at both N- and C-terminus end) in order to identify the minimum sequence retaining high-affinity binding. […] We have previously shown that the epitope peptide is a disulphide-bonded structure, and its reactivity to human anti-PLA2R is sensitive to reduction ([8]). […] The substitution scan of these two regions was performed by exchange of the native amino acids with all 20 main amino acids. […] To further investigate this, a second array (platform 3) combined both parts of the N-terminal region and the cyclic C-terminal region. […]
Peptide microarrays were generated and performed by PEPperPRINT (Heidelberg, Germany) ([31], [32]). […] Peptide spot intensity quantification and peptide annotation were executed with PepSlide Analyzer. […]

[2] = system: PLA2R autoantibody (27 MN anti-PLA2R positive sera); test: BLI direct interaction assay: immobilized peptides with anti-PLA2R positive sera; format: binding, human; settings: BLI (Octet Red); 27 MN sera at 1/200; dissociation rate from Hill-1 plot; n = 3
Experimental: BLI experiments were conducted using an Octet Red (ForteBio). Octet CDL sensors (coated with a thin layer of carboxymethyl dextran) were activated by EDC/NHS, at the same concentration used for SPR, for 300 s with 1000 rpm agitation. […] Following immobilization, sensors were deactivated in 1 M ethanolamine for 300 s to prevent further immobilization of proteins to the samples sensors.
The association phase was measured for 450 s with 1000 rpm agitation. The dissociation phase for each sensor was subsequently measured by incubating the sensors into Hepes-sera buffer for 1200 s at 1000 rpm. Regeneration of the sensor was achieved by six successive washes in 10 mM NaOH for 15 s followed by 15 s in Milli-Q water. The immobilized sensor responses to anti-PLA2R IgG were calibrated against nonspecific binding of each immobilized sensor to Hepes-sera buffer.
The dissociation phase of each response was collected and plotted, and the dissociation rate was calculated (kd) as the 1/k value produced from a Hill-1 plot analysis. The average dissociation rate was calculated for each peptide sensor binding to the 27 MN patients’ sera. Dissociation rates with an R^2 value <0.9 or χ^2 value >3 were excluded from the data due to poor fitting.

[3] = system: human anti-PLA2R antibody (MN anti-PLA2R IgG) binding to PLA2R-NC3; test: SPR inhibition assay: peptides block anti-PLA2R IgG binding to immobilized PLA2R-NC3; settings: SPR (ProteOn), 1 µM peptide, anti-PLA2R IgG 1/100 in Hepes buffer pH 7.2, maximal response, n = 3
Experimental: Real-time binding analysis was evaluated using an SPR instrument (ProteOn, BIO-RAD). ProteOn GLC sensor lanes were preactivated by injection of 18.75 mg/mL EDC (1-ethyl-3-(3-dimethylaminopropyl) carbodiimide) and 1.4 mg/mL NHS (N-hydroxysuccinimide, Sigma-Aldrich). Once activated, 20 μg/mL PLA2R-NC3 in 10 mM sodium acetate buffer (pH 4.5) (BIO-RAD) was injected onto sensor chip lanes for immobilization. Ethanolamine was injected to deactivate the sensors from further immobilization.
Subsequently, all AIPs were tested in triplicate using the same concentration. […] Hepes buffer was subsequently flown over, and the dissociation phase was measured for 400 s. The sensors were then regenerated with two successive injections (40 s) of 10 mM NaOH (sodium hydroxide). Each measured response of anti-PLA2R IgG with or without peptides to immobilized PLA2R-NC3 protein was calibrated against nonspecific binding of the sensor to Hepes buffer and Hepes buffer containing antibodies with or without peptides to a blank immobilized sensor. The maximal response was measured for all conditions of anti-PLA2R IgG and percentage inhibition of PLA2R autoantibody binding to PLA2R by AIPs calculated.

PLA2R autoantibody = test: Autoantibody binding to Endo180 protein (western blot and dot blot, Fig. S2); parameters: species or system human; settings: western blot non reduced and reduced; dot blot under native condition
Experimental: To determine the contribution of the conformation of the epitope sequence, the binding of the autoantibody was tested against Endo180 protein, another member of the mannose receptor family with high structural homology of the PLA2R CysR domain (SI Appendix, Fig. S2).
Fig. S2: PLA2R autoantibodies incapable of binding to Endo180 potentially due to lack of surface cavity in the P28mer epitope region.
A) Sequences from the P28mer region in the mannose receptor family proteins were subjected to consensus mapping by weblogo. Residues conserved in all mannose receptor proteins are indicated with *. B) Western blot analysis of PLA2R and Endo180 under non reduced and reduced conditions using anti-His and human PLA2R autoantibody. C) Dot blot analysis of PLA2R and […]
PLA2R autoantibody under native condition. D) Comparison of the PLA2R, DEC -205 (5ao5) and Endo-180 (7jpt) structures and their overlays. The RSMD values generated were 3.184 Å RMSD for analysis between PLA2R and Endo180, 3.558 Å RMSD for DEC-205 and Endo180, where Endo180 was used as reference.
(1 picture or pasted object on this page, not shown here)

Molecule | autoantibody binding to printed peptide (fluorescence intensity) [1] | binding affinity of immobilized peptide to anti-PLA2R positive sera, relative to P28mer [2] | also measured
CIQAGKSVLTLENCK (disulfide 1-14 (inferred)) [platform 2, microarray-printed cyclic region […] of P28mer, cyclized by disulphide] | no significant binding |  | 
KGIFVIQSESLKKC [platform 1, microarray-printed linear region […] of P28mer] | no significant binding |  | 
SVLTLENCK [AIP2] |  | lower affinity than the P28mer | 
VIQSESLK [AIP1] |  | lower affinity than the P28mer | percentage inhibition of PLA2R autoantibody binding to PLA2R [3]: ~40%
B1 |  |  | interaction of the autoantibody with the protein (PLA2R autoantibody): No interaction was detected
